# Measured values reported in PubChem BioAssay AID2060494 (Molecular Pharmacology Branch, DTP, NCI, 2025).
# Tested on: 435261-313-R-J1-PDC complex spheroid viability
# Test: Anticancer human tumor 435261-313-R-J1-PDC patient-derived colon adenocarcinoma cell line growth inhibition [GQUAD]
# Settings: for IC50: curve of first compound; for viability, T/C: stronger effect = lower value
# Text: DNA G-quadruplex Stabilizer Agents in Combinations in Complex Spheroids
# A high-throughput screen of multi-cell type tumor spheroids was designed to identify active combinations of DNA G-quadruplex stabilizer agents and targeted small molecules. Complex spheroids include a stromal component modeled by human endothelial cells (HUVEC) and fibroblasts modeled by human mesenchymal stem cells (MSCs). The concentration ranges selected for each drug and investigational agent were based upon clinically achievable concentrations if the clinical Cmax of the agent was known.
# Compounds. The drugs and investigational agents: pidnarulex (CX-5461; NSC782164), APTO-253 (NSC789042), BRACO-19 (NSC847499), peposertib (NSC802822), ceralasertib (NSC780249), elimusertib (NSC800525), camonsertib (NSC841442), AZD-1390 (NSC803789), olaparib (NSC753686), talazoparib (NSC767125), ART-558 (NSC835418), sotorasib (NSC818433), MRTX-1133 (NSC836407), SN-38 (NSC673596), topotecan (NSC609699), etoposide (NSC141540), doxorubicin (NSC123127), gemcitabine (NSC613327), 5-fluorouracil (NSC19893), paclitaxel (NSC125973), vemurafenib (NSC761431), panobinostat (NSC761190), R-306465 (JNJ-16241199; NSC773264), adavosertib (NSC754352), TP-3654 (NSC805149), carboplatin (NSC241240), KSQ-4279 (NSC840948), and staurosporine (NSC755774) were obtained from the National Cancer Institute (NCI) Developmental Therapeutics Program Chemical Repository (34). The FDA-approved anticancer drug set is available from the NCI Developmental Therapeutics Program. […] The stock solutions were prepared in dimethyl sulfoxide (DMSO, Sigma-Aldrich, St. Louis, MO, cat. D2650) at 800-fold the tested concentration and stored at -70 degrees C prior to their use. All drugs and investigational agents were tested over a range starting from a high concentration at or near the clinical Cmax and decreasing in half-log increments. If the clinical Cmax for an agent had not been determined, the highest concentration tested was 10 microM.
# 2.3 Cell Culture. All cells were maintained in an incubator at 37 degrees C and 5% CO2 with 95% humidity. The PDC lines were cultured according to standard operating procedures established by the NCI PDMR. All PDCs were thawed and cultured in Matrigel-coated flasks prepared with a working solution of 1X Ham's F-12 nutrient mix, without supplementation (Invitrogen, cat. 11765054), 100 U/mL penicillin-streptomycin (Invitrogen, cat. 15140122), and 2.5% Matrigel (Corning Inc., cat. 354248) for the first three passages. The 857933-349-R-J2-PDC line was cultured in 6C/Colon 1B media, which includes advanced DMEM/F-12 (Thermo Fisher Scientific, cat. 12634028), 10 mM HEPES (Thermo Fisher Scientific, cat. 15630080), 1X GlutaMAX supplement (Thermo Fisher Scientific, cat. 35050061), 0.1 mg/mL primocin (InvivoGen, cat. ant-pm-2), 10% defined fetal bovine serum, heat inactivated (HyClone Laboratories Inc., cat. SH30070.03HI), 50% L-WRN conditioned media (ATCC, cat. CRL-3276), 1.25 mM N-Acetyl-L-cysteine (Sigma-Aldrich, cat. A9165), 10 mM nicotinamide (Sigma-Aldrich, cat. N0636), 1X B-27 supplement (Thermo Fisher Scientific, cat. 17504044), 1X N-2 supplement (Thermo Fisher Scientific, cat. 17502048), 10 microM Y-27632 dihydrochloride (Tocris Bioscience, cat. 1254), and 50 ng/mL human EGF recombinant protein (Thermo Fisher Scientific, cat. PHG0311). The 485176-168-R4-J1-PDC line was cultured in Panc media, which includes all 6C/Colon 1B media components plus 100 ng/mL human FGF-10 (Thermo Fisher Scientific, cat. 100-26), 500 nM SB-431542 (Selleckchem, cat. S1067), and gastrin (Tocris, cat. 3006).
# […]
# 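Further: spheroids exposed to the agents for seven days before readout.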
# 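Wherever viability, T/C is given: percent of vehicle control viability with DMSO wells as 100%.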
structure (smiles),measurement,setting,value
O=c1[nH]cc(F)c(=O)[nH]1 + Cc1cnc(CNC(=O)c2c(=O)c3ccc(N4CCCN(C)CC4)nc3n3c2sc2ccccc23)cn1,IC50,second compound 0.0316 µM,> 10 µM
same,IC50,second compound 0.1 µM,> 10 µM
same,IC50,second compound 0.316 µM,> 10 µM
same,IC50,second compound 1 µM,< 0.0316 µM
same,IC50,second compound 3.16 µM,< 0.0316 µM
same,IC50,second compound 10 µM,< 0.0316 µM
same,"viability, T/C","second compound 0.0316 µM, first compound 0.0316 µM",85.2%
same,"viability, T/C","second compound 0.0316 µM, first compound 0.1 µM",68.1%
same,"viability, T/C","second compound 0.0316 µM, first compound 0.316 µM",76.1%
same,"viability, T/C","second compound 0.0316 µM, first compound 1 µM",67.4%
same,"viability, T/C","second compound 0.0316 µM, first compound 3.16 µM",81.4%
same,"viability, T/C","second compound 0.0316 µM, first compound 10 µM",86.7%
same,"viability, T/C","second compound 0.1 µM, first compound 0.0316 µM",68.8%
same,"viability, T/C","second compound 0.1 µM, first compound 0.1 µM",64%
same,"viability, T/C","second compound 0.1 µM, first compound 0.316 µM",56.1%
same,"viability, T/C","second compound 0.1 µM, first compound 1 µM",65.7%
same,"viability, T/C","second compound 0.1 µM, first compound 3.16 µM",81.9%
same,"viability, T/C","second compound 0.1 µM, first compound 10 µM",61.1%
same,"viability, T/C","second compound 0.316 µM, first compound 0.0316 µM",57.3%
same,"viability, T/C","second compound 0.316 µM, first compound 0.1 µM",59.5%
same,"viability, T/C","second compound 0.316 µM, first compound 0.316 µM",56.7%
same,"viability, T/C","second compound 0.316 µM, first compound 1 µM",56%
same,"viability, T/C","second compound 0.316 µM, first compound 3.16 µM",67%
same,"viability, T/C","second compound 0.316 µM, first compound 10 µM",60.6%
same,"viability, T/C","second compound 1 µM, first compound 0.0316 µM",41.5%
same,"viability, T/C","second compound 1 µM, first compound 0.1 µM",45.9%
same,"viability, T/C","second compound 1 µM, first compound 0.316 µM",47.6%
same,"viability, T/C","second compound 1 µM, first compound 1 µM",47%
same,"viability, T/C","second compound 1 µM, first compound 3.16 µM",55.1%
same,"viability, T/C","second compound 1 µM, first compound 10 µM",40.2%
same,"viability, T/C","second compound 3.16 µM, first compound 0.0316 µM",20.3%
same,"viability, T/C","second compound 3.16 µM, first compound 0.1 µM",19.4%
same,"viability, T/C","second compound 3.16 µM, first compound 0.316 µM",17.6%
same,"viability, T/C","second compound 3.16 µM, first compound 1 µM",24.2%
same,"viability, T/C","second compound 3.16 µM, first compound 3.16 µM",18.9%
same,"viability, T/C","second compound 3.16 µM, first compound 10 µM",23.6%
same,"viability, T/C","second compound 10 µM, first compound 0.0316 µM",0.16%
same,"viability, T/C","second compound 10 µM, first compound 0.1 µM",0.18%
same,"viability, T/C","second compound 10 µM, first compound 0.316 µM",0.23%
same,"viability, T/C","second compound 10 µM, first compound 1 µM",0.21%
same,"viability, T/C","second compound 10 µM, first compound 3.16 µM",0.23%
same,"viability, T/C","second compound 10 µM, first compound 10 µM",0.21%
